Reference: patent US5232846A, “Method for producing a thermostable lipoprotein lipase from streptomyces” (Unitika Ltd., priority 1988, dated 1993)

What follows are compounds tested on LPL of the present invention produced by Streptomyces 7825 (assay: Substrate specificity of the LPL on lipoproteins consisting of various triglycerides). Conditions: relative to olive oil as a standard (100%).
Format: biochemical
Description: In Table 1, the activity is expressed relative to an olive oil as a standard (100%).
Titer determination is principally based on the quantitative determination of glycerol formed through the action of LPL on artificial lipoprotein prepared from olive oil as described in Clin. Chim. Acta., Vol. 22, p.
A mixture of 5 g of olive oil and 5 ml of a 5% (v/v) Triton X-100 solution is subjected to ultrasonication for 10 minutes to prepare a substrate emulsion.
Seventy microliters of the abovementioned substrate solution, 20 μl of a 0.5M glycine buffer (pH 8.5), 50 μl of 10% (w/v) BSA, and 55 μl of water are mixed in a test tube, and the system is preheated at 37° C. 5 μl of an enzyme solution having an enzyme concentration adjusted to about 10 U/ml, is added to the system. The system is then allowed to react at 37° C. for 10 minutes. After completion of the reaction, the test tube is soaked in boiling water to stop the reaction. After allowing the test tube to cool, 400 μl of isopropanol is added to the reaction system, followed by stirring. The mixture is then centrifuged. 2 ml of isopropanol is then added to 100 μl of the supernatant liquor. The solution is mixed with 1 ml of the above prepared metaperiodic acid solution and 0.5 ml of the above prepared acetylacetone solution to effect a reaction at 50° C. for 30 minutes. The absorbance of the system at 405 nm is measured. A blank estimation (control) is run on a system containing no enzyme solution.
From the measured values, a calibration curve is prepared using a glycerol solution having a known concentration. Thus the glycerol content of the reaction mixture is determined using the prepared calibration curve.
The enzyme activity is expressed by taking the amount of the enzyme which forms 1 μmol of glycerol per minute as 1 U.

| Compound | Relative Activity [%] |
| --- | --- |
| CCCCCCCCCC(=O)OCC(COC(=O)CCCCCCCCC)OC(=O)CCCCCCCCC [Tricaprin] | 153 |
| CCCCCCCCCCCC(=O)OCC(COC(=O)CCCCCCCCCCC)OC(=O)CCCCCCCCCCC [Trilaurin] | 234 |
| CCCCCCCC(=O)OCC(COC(=O)CCCCCCC)OC(=O)CCCCCCC [Tricaprylin] | 148 |
| CCCCCCCCCCCCCCCCCC(=O)OCC(COC(=O)CCCCCCCCCCCCCCCCC)OC(=O)CCCCCCCCCCCCCCCCC [Tristearin] | 29 |
| CCCCCC(=O)OCC(COC(=O)CCCCC)OC(=O)CCCCC [Tricaproin] | 46 |
| CC(=O)OCC(COC(C)=O)OC(C)=O [Triacetin] | 28 |
| CCCCCCCCCCCCCCCC(=O)OCC(COC(=O)CCCCCCCCCCCCCCC)OC(=O)CCCCCCCCCCCCCCC [Tripalmitin] | 99 |
| CCCCCCCC/C=C\CCCCCCCC(=O)OCC(COC(=O)CCCCCCC/C=C\CCCCCCCC)OC(=O)CCCCCCC/C=C\CCCCCCCC [Triolein] | 75 |
| CCCC(=O)OCC(COC(=O)CCC)OC(=O)CCC [Tributyrin] | 22 |

Each compound was assayed on LPL of the present invention produced by Streptomyces 7825 (assay: Inhibition of the LPL). Conditions: 400 μg/ml protamine sulfate.
Format: biochemical

| Compound | inhibition of LPL |
| --- | --- |
| protamine sulfate | about 30% |

Same assay, conditions: 10 mM deoxycholic acid

| Compound | inhibition of LPL |
| --- | --- |
| C[C@H](CCC(=O)O)[C@H]1CC[C@H]2[C@@H]3CC[C@@H]4C[C@H](O)CC[C@]4(C)[C@H]3C[C@H](O)[C@]12C [deoxycholic acid] | about 40% |

Same assay, conditions: 3M NaCl

| Compound | inhibition of LPL |
| --- | --- |
| [Cl-].[Na+] [NaCl] | about 40% |
